According to patent publication US11806358B1, “Method of treating trypanosomiasis” (KING FAISAL UNIVERSITY, priority 2023, dated 2023):
Values after ≈ are worked out from the molar mass of the structure shown.

Assays:
[1] = system: T. congolense (Tc) IL3000; assay: Anti-trypanosomal assay (CellTiter-Glo), TcIL3000; format: cell-based; details: mean ± SD
Protocol: Six trypanosome species namely T. b. brucei (Tbb) GuTat3.1, T. b. rhodesiense (Tbr) IL1501, T. b. gambiense (Tbg) IL1922, T. evansi (Tev) Tansui, T. equiperdum (Teq) IVM-t1 and T. congolense (Tc) IL3000, were cultivated using HMI-9 medium and used in the study. The trypanocidal activity of hesperidin and neohesperidin dihydrochalcone, shown below, was assessed at 25 μg/ml or […].
(§1) The IC50 of Neohesperidin dihydrochalcone against six trypanosome species was determined using serial dilution in a 96-well plate (Optical bottom plate, ThermoFisher SCIENTIFIC, MA, USA). After three days, […] of CellTiter-Glo Luminescent cell viability reagent (Promega Corporation, WI, USA) was aliquoted into each well and luminosity was measured with a GloMax plate reader (Promega Corporation, WI, USA).

[2] = system: T. b. brucei (Tbb) GuTat3.1; assay: Anti-trypanosomal assay (CellTiter-Glo), TbbGUTat3.1; format: cell-based; details: mean ± SD
Protocol: (§2) Six trypanosome species namely T. b. brucei (Tbb) GuTat3.1, T. b. rhodesiense (Tbr) IL1501, T. b. gambiense (Tbg) IL1922, T. evansi (Tev) Tansui, T. equiperdum (Teq) IVM-t1 and T. congolense (Tc) IL3000, were cultivated using HMI-9 medium and used in the study. […]
as §1

[3] = system: T. b. rhodesiense (Tbr) IL1501; assay: Anti-trypanosomal assay (CellTiter-Glo), TbrIL1501; format: cell-based; details: mean ± SD
Protocol: as §2, §1

[4] = system: T. b. gambiense (Tbg) IL1922; assay: Anti-trypanosomal assay (CellTiter-Glo), TbgIL1922; format: cell-based; details: mean ± SD
Protocol: as §2, §1

[5] = system: T. evansi (Tev) Tansui; assay: Anti-trypanosomal assay (CellTiter-Glo), Tev Tansui; format: cell-based; details: mean ± SD
Protocol: as §2, §1

[6] = system: T. equiperdum (Teq) IVM-t1; assay: Anti-trypanosomal assay (CellTiter-Glo), Teq IVM-t1; format: cell-based
Protocol: as §2, §1

[7] = system: six trypanosome species; assay: Anti-trypanosomal assay, statements over all six species; format: cell-based, Trypanosoma; details: for antitrypanosomal activity: assayed at 0.25 or 25 μg/ml; for trypanocidal activity (words): at about 25 μg/ml
Protocol: as §2, §1

[8] = system: Trypanosoma; details: previously tested; cited from earlier work
[9] = system: Toxoplasma gondii; details: compared to other flavonoids and conventional medicines; cited from earlier work
[10] = Trypanosoma equiperdum, read-out: Inhibition rate

With `COc1ccc([C@@H]2CC(=O)c3c(O)cc(O[C@@H]4O[C@H](CO[C@@H]5O[C@@H](C)[C@H](O)[C@@H](O)[C@H]5O)[C@@H](O)[C@H](O)[C@H]4O)cc3O2)cc1O` [Hesperidin, hesperidin, reference compound] the inhibition at 0.25 µg/mL ([1]; Trypanosoma congolense, TcIL3000, 0.25 μg/ml, read-out: Inhibition rate) was 0%, the inhibition at 25 µg/mL ([1]; Trypanosoma congolense, TcIL3000, 25 μg/ml, read-out: Inhibition rate) was 0% and the inhibition at 0.25 µg/mL ([2]; Trypanosoma brucei, TbbGUTat3.1, 0.25 μg/ml, read-out: Inhibition rate) was 0%. It also gave an inhibition at 25 µg/mL ([2]; Trypanosoma brucei, TbbGUTat3.1, 25 μg/ml, read-out: Inhibition rate) of 1.05 ± 0.99%, an inhibition at 0.25 µg/mL ([3]; Trypanosoma brucei, RHODESIENSE, TbrIL1501, 0.25 μg/ml, read-out: Inhibition rate) of 7.17 ± 3.1% and an inhibition at 25 µg/mL ([3]; Trypanosoma brucei, RHODESIENSE, TbrIL1501, 25 μg/ml, read-out: Inhibition rate) of 0%. For the same compound, the inhibition at 0.25 µg/mL ([4]; Trypanosoma brucei, GAMBIENSE, TbgIL1922, 0.25 μg/ml, read-out: Inhibition rate) was 1.56 ± 2.2%, the inhibition at 25 µg/mL ([4]; Trypanosoma brucei, GAMBIENSE, TbgIL1922, 25 μg/ml, read-out: Inhibition rate) was 0% and the inhibition at 0.25 µg/mL ([5]; 0.25 μg/ml, read-out: Inhibition rate) was 7.67 ± 5.9%. The inhibition at 25 µg/mL ([5]; 25 μg/ml, read-out: Inhibition rate) was 0%, the inhibition at 0.25 µg/mL [6, 10] was 0.015 ± 0.022% and the inhibition at 25 µg/mL [6, 10] was 0.97 ± 1.37%. The “antitrypanosomal activity” value [7] was “inadequate antitrypanosomal activity”, the “trypanocidal activity (words)” value [7] was “no activity” and the “trypanocidal action” value [8] was “did not previously show any trypanocidal action”.

`COc1ccc(CCC(=O)c2c(O)cc(O[C@@H]3O[C@H](CO)[C@@H](O)[C@H](O)[C@H]3O[C@@H]3O[C@@H](C)[C@H](O)[C@@H](O)[C@H]3O)cc2O)cc1O` [Neohesperidin dihydrochalcone, neohesperidin dihydrochalcone] gave an Inhibition rate ([1]; TcIL3000, 0.25 μg/ml) of 0%, an Inhibition rate ([1]; TcIL3000, 25 μg/ml) of 82.07 ± 6.4% and an IC50 ([1]; TcIL3000, three days) of 22.53 ± 2.3 µg/mL (≈ 36.8 µM). For the same compound, the Inhibition rate ([2]; TbbGUTat3.1, 0.25 μg/ml) was 2.89 ± 1.69%, the Inhibition rate ([2]; TbbGUTat3.1, 25 μg/ml) was 99.65 ± 0.2% and the Inhibition rate ([2]; TbbGUTat3.1, 25 μg/ml, listed as neohesperidin dihydrochalcone) was “more than 99%”. The IC50 ([2]; TbbGUTat3.1, three days) was 11.97 ± 0.026 µg/mL (≈ 19.5 µM), the Inhibition rate ([3]; TbrIL1501, 0.25 μg/ml) was 3.95 ± 5.59% and the Inhibition rate ([3]; TbrIL1501, 25 μg/ml) was 99.63 ± 0.25%. For the same compound, the Inhibition rate ([3]; TbrIL1501, 25 μg/ml, listed as neohesperidin dihydrochalcone) was “more than 99%”, the IC50 ([3]; TbrIL1501, three days) was 9.47 ± 2.73 µg/mL (≈ 15.5 µM) and the Inhibition rate ([4]; TbgIL1922, 0.25 μg/ml) was 1.09 ± 0.64%. The Inhibition rate ([4]; TbgIL1922, 25 μg/ml) was 99.63 ± 0.28%, the Inhibition rate ([4]; TbgIL1922, 25 μg/ml, listed as neohesperidin dihydrochalcone) was “more than 99%” and the IC50 ([4]; TbgIL1922, three days) was 8.88 ± 3.84 µg/mL (≈ 14.5 µM). The Inhibition rate ([5]; 0.25 μg/ml) was 3.59 ± 5.5%, the Inhibition rate ([5]; 25 μg/ml) was 99.18 ± 0.22% and the Inhibition rate ([5]; 25 μg/ml, listed as neohesperidin dihydrochalcone) was “more than 99%”. The IC50 ([5]; three days) was 12.69 ± 0.98 µg/mL (≈ 20.7 µM), the Inhibition rate ([6]; Teq IVM-t1, 0.25 μg/ml, mean ± SD) was 0.59 ± 0.84% and the Inhibition rate ([6]; Teq IVM-t1, 25 μg/ml, mean ± SD) was 98.8 ± 0.17%. The Inhibition rate ([6]; Teq IVM-t1, 25 μg/ml, mean ± SD, listed as neohesperidin dihydrochalcone) was “more than 99%”, the IC50 ([6]; Teq IVM-t1, three days, mean ± SD) was 11.38 ± 3.93 µg/mL (≈ 18.6 µM) and the “antitrypanosomal activity” value [7] was “broad-spectrum and strong inhibition of trypanosomal growth”. For the same compound, the “trypanocidal activity (words)” value [7] was “substantial trypanocidal activity”, the “trypanocidal activity (words)” value ([7]; listed as neohesperidin dihydrochalcone) was “suppressed all the test strains” and the “inhibition rate, range over the species” value ([7]; low concentration of 0.25 μg/ml) was 1.09-3.95%. For the same compound, the “IC50 range over the six species” value ([7]; six Trypanosoma species) was 8.88 to 22.53 µg/mL.

In the case of `COc1ccc([C@@H]2CC(=O)c3c(O)cc(O[C@@H]4O[C@H](CO)[C@@H](O)[C@H](O)[C@H]4O[C@@H]4O[C@@H](C)[C@H](O)[C@@H](O)[C@H]4O)cc3O2)cc1O` [neohesperidin], the “antiprotozoal activity against Toxoplasmosis” value [9] is listed as “not as effective as other standard drugs or flavonoids”.
